Data as given in patent US6887676B1 (priority 1999, dated 2005).
pKd: −log10 of the molar value.

Legend:
amyloid Aβ protein = details: cited from earlier work
type 1 PrP^Sc [1] = molecular target: T1, type 1 PrP^Sc (Homo sapiens, UniProt P04156); details: for effectiveness in maintaining type 1 PrP^Sc conformation: 30 μM metal ion; for effect of metal ion on electrophoretic mobility of metal-depleted, proteinase K digested type 1 PrP^Sc: exposure prior to and during electrophoresis, FIG. 4b; for digestion products of type 1 PrP^Sc washed in maintained presence of metal ion: total concentrations observed in serum, FIG. 4a; for concentration at which type 1 PrP^Sc conformation could be readily maintained: washing before PK digestion
type 1 PrP^Sc [2] = molecular target: T1, type 1 PrP^Sc; assay type: biochemical; details: FIGS. 3e and f; for ability of selective chelator to mirror the EDTA action on type 1 PrP^Sc cleavage: 20 mM chelator, N-ethylmorpholine buffer; for cleavage pattern of type 1 PrP^Sc digested in presence of copper-selective chelator: 20 mM, intermediate between type 1 and type 2^-
type 2 PrP^Sc = type 2 PrP^Sc (Homo sapiens, UniProt P04156); details: different concentrations; FIG. 4d
[3] = molecular target: recombinant full length hamster PrP (Mesocricetus auratus, UniProt P04273); details: read-out: dissociation constant of Cu^2+ binding; cited from earlier work
Chain of recombinant full length hamster PrP (P04273 23-254 limits assumed): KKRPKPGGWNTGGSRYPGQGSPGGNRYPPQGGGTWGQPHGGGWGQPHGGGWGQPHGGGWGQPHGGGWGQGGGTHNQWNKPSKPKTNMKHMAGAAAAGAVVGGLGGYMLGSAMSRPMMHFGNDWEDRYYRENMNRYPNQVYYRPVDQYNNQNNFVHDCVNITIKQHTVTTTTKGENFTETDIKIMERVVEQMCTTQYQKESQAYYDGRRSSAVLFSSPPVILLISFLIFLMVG

For `[Cl][Ni][Cl]` [Ni^2+], the “induction of aggregation of Aβ protein” value (amyloid Aβ protein) is given as “also effective” and the “effectiveness in maintaining type 1 PrP^Sc conformation” value (“effectiveness” below) (type 1 PrP^Sc [1]; FIG. 4c) is given as “can effectively substitute”.

In the case of `[Cl][Mn][Cl]` [Mn^2+], the “effectiveness” value (type 1 PrP^Sc [1]; FIG. 4c) was “only Ni^2+ can effectively substitute”.

In the case of `O=C(O)CN(CCOCCOCCN(CC(=O)O)CC(=O)O)CC(=O)O` [EGTA], the “ability of selective chelator to mirror the EDTA action on type 1 PrP^Sc cleavage” value (“ability of selective chelator” for short) (type 1 PrP^Sc [2]) was “unable to precisely mirror this action” and the “cleavage pattern of type 1 PrP^Sc digested in presence of copper-selective chelator” value (type 1 PrP^Sc [2]) was “intermediate pattern”.

With `NCCNCCNCCN` [triethylenetetramine] the “ability of selective chelator” value (type 1 PrP^Sc [2]) was “unable to precisely mirror this action” and the “cleavage pattern of type 1 PrP^Sc digested in presence of copper-selective chelator” value (type 1 PrP^Sc [2]) was “intermediate pattern”.

In the case of `O=S(=O)([O-])[O-].[Cu+2]` [Cu^2+], the “induction of aggregation of Aβ protein” value (amyloid Aβ protein) is given as “able to induce aggregation of Aβ protein”, the “cleavage pattern of type 1 PrP^Sc after washing and digestion with Cu^2+” value (type 1 PrP^Sc [1]; 20 μM of range 10-25 μM, FIG. 4a lanes 6-8) is given as “migrated with a mobility similar to that of the type 2 products” and the “effect of metal ion on electrophoretic mobility of metal-depleted, proteinase K digested type 1 PrP^Sc” value (type 1 PrP^Sc [1]) is given as “had no effect”. The “digestion products of type 1 PrP^Sc washed in maintained presence of metal ion” value (type 1 PrP^Sc [1]) was “digestion products closely resembled those generated from untreated type 1 PrP^Sc”, the “concentration at which type 1 PrP^Sc conformation could be readily maintained” value (type 1 PrP^Sc [1]) was “higher concentrations of Cu^2+ were required” and the “digestion products of type 2 PrP^Sc washed in maintained presence of metal ion” value (type 2 PrP^Sc) was “either the original type 2 pattern of digestion products, or a new pattern of higher molecular mass cleavage fragments closely similar to those generated from untreated type 1 PrP^Sc”. The pKd [3] was 4.85.

For `c1cnc2c(c1)ccc1cccnc12` [1, 10 phenanthroline], the “ability of selective chelator” value (type 1 PrP^Sc [2]) was “unable to precisely mirror this action”.

For `O=C(O)c1cccc(C(=O)O)n1` [dipicolinic acid], the “ability of selective chelator” value (type 1 PrP^Sc [2]) was “unable to precisely mirror this action”.

In the case of `Cc1ccc2ccc3ccc(C)nc3c2n1` [neocuproine], the “ability of selective chelator” value (type 1 PrP^Sc [2]) was “unable to precisely mirror this action”.

For `[Cl-].[Cl-].[Co+2]` [Co^2+], the “induction of aggregation of Aβ protein” value (amyloid Aβ protein) is given as “also effective”, the “effectiveness” value (type 1 PrP^Sc [1]; FIG. 4c) is given as “only Ni^2+ can effectively substitute” and the “cleavage pattern of type 1 PrP^Sc after washing and digestion with Co^2+” value (type 1 PrP^Sc [1]; 30 μM, FIG. 4c) is given as “intermediate pattern”.

With `O=S(=O)(O)c1ccc(-c2ccnc3c2ccc2c(-c4ccc(S(=O)(=O)O)cc4)ccnc23)cc1` [bathophenanthroline disulfonic acid] the “ability of selective chelator” value (type 1 PrP^Sc [2]) was “unable to precisely mirror this action”.

In the case of `[Cl-].[Cl-].[Zn+2]` [Zn^2+], the “induction of aggregation of Aβ protein” value (amyloid Aβ protein) is listed as “able to induce aggregation of Aβ protein”, the “effect of metal ion on electrophoretic mobility of metal-depleted, proteinase K digested type 1 PrP^Sc” value (type 1 PrP^Sc [1]) is listed as “had no effect” and the “digestion products of type 1 PrP^Sc washed in maintained presence of metal ion” value (type 1 PrP^Sc [1]) is listed as “digestion products closely resembled those generated from untreated type 1 PrP^Sc”. The “concentration at which type 1 PrP^Sc conformation could be readily maintained” value (type 1 PrP^Sc [1]) was 10 µM and the “digestion products of type 2 PrP^Sc washed in maintained presence of metal ion” value (type 2 PrP^Sc) was “either the original type 2 pattern of digestion products, or a new pattern of higher molecular mass cleavage fragments closely similar to those generated from untreated type 1 PrP^Sc”.
